Values after ≈ are worked out from the molar mass of the structure shown.
What was measured:
Enterococcus spp. = assay: minimum inhibitory concentration (MIC)
Procedure: (§1)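 Broth microdilution MIC (Sensititre BOPO7F bovine plate, CLSI methods) of 19 antimicrobials against field isolates of P. multocida, M. haemolytica, H. somni (deep nasopharyngeal swabs) and E. coli, Enterococcus spp. (rectal swabs) from weaned dairy heifers. Incubation 16-24 h at 35 C. MIC is the lowest concentration preventing visible growth. Values with <= or > lie at the tested range limits. Trimethoprim-sulfamethoxazole is given as the trimethoprim component of a 1:19 mixture.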

Histophilus somni = assay: minimum inhibitory concentration (MIC)
Procedure: as §1

C=C[C@]1(C)C[C@@H](OC(=O)CSCCN(CC)CC)[C@]2(C)[C@H](C)CC[C@]3(CCC(=O)[C@H]32)[C@@H](C)[C@@H]1O [Tiamulin]
minimum inhibitory concentration [µg/mL]
Conditions	Enterococcus spp.	Histophilus somni
isolate (source animal id): 2	1 (≈ 2.03 µM)	–
isolate (source animal id): 3	–	1 (≈ 2.03 µM)
isolate (source animal id): 4	–	1 (≈ 2.03 µM)
isolate (source animal id): 7	–	1 (≈ 2.03 µM)
isolate (source animal id): 14	–	2 (≈ 4.05 µM)
isolate (source animal id): 15	–	1 (≈ 2.03 µM)
isolate (source animal id): 17	–	1 (≈ 2.03 µM)
isolate (source animal id): 18	–	1 (≈ 2.03 µM)
isolate (source animal id): 20	–	≤ 0.5
isolate (source animal id): 23	–	1 (≈ 2.03 µM)
isolate (source animal id): 35	> 32	–
isolate (source animal id): 42	> 32	–
isolate (source animal id): 44	> 32	–
isolate (source animal id): 45	–	2 (≈ 4.05 µM)
isolate (source animal id): 53	–	2 (≈ 4.05 µM)
isolate (source animal id): 79	> 32	–
isolate (source animal id): 83	–	1 (≈ 2.03 µM)
isolate (source animal id): 88	2 (≈ 4.05 µM)	1 (≈ 2.03 µM)
isolate (source animal id): 91	2 (≈ 4.05 µM)	–
isolate (source animal id): 92	> 32	2 (≈ 4.05 µM)
isolate (source animal id): 93	–	1 (≈ 2.03 µM)
isolate (source animal id): 99	–	2 (≈ 4.05 µM)
isolate (source animal id): 100	–	2 (≈ 4.05 µM)
isolate (source animal id): 105	–	1 (≈ 2.03 µM)
isolate (source animal id): 107	–	2 (≈ 4.05 µM)
isolate (source animal id): 108	–	2 (≈ 4.05 µM)
isolate (source animal id): 109	–	2 (≈ 4.05 µM)
isolate (source animal id): 110	–	2 (≈ 4.05 µM)
isolate (source animal id): 111	2 (≈ 4.05 µM)	–
isolate (source animal id): 117	–	1 (≈ 2.03 µM)
isolate (source animal id): 121	–	1 (≈ 2.03 µM)
isolate (source animal id): 122	> 32	–
isolate (source animal id): 123	> 32	1 (≈ 2.03 µM)
isolate (source animal id): 124	–	2 (≈ 4.05 µM)
isolate (source animal id): 127	–	1 (≈ 2.03 µM)
isolate (source animal id): 128	–	1 (≈ 2.03 µM)
isolate (source animal id): 130	–	1 (≈ 2.03 µM)
isolate (source animal id): 132	–	2 (≈ 4.05 µM)
isolate (source animal id): 133	≤ 0.5	–
isolate (source animal id): 135	–	1 (≈ 2.03 µM)
isolate (source animal id): 140	–	2 (≈ 4.05 µM)
isolate (source animal id): 141	–	2 (≈ 4.05 µM)
isolate (source animal id): 142	–	2 (≈ 4.05 µM)
isolate (source animal id): 144	–	2 (≈ 4.05 µM)
isolate (source animal id): 146	–	1 (≈ 2.03 µM)
isolate (source animal id): 147	–	2 (≈ 4.05 µM)
isolate (source animal id): 151	–	1 (≈ 2.03 µM)
isolate (source animal id): 153	–	2 (≈ 4.05 µM)
isolate (source animal id): 154	–	2 (≈ 4.05 µM)
isolate (source animal id): 156	–	2 (≈ 4.05 µM)
isolate (source animal id): 157	–	2 (≈ 4.05 µM)
isolate (source animal id): 158	> 32	–
isolate (source animal id): 168	1 (≈ 2.03 µM)	–
isolate (source animal id): 169	1 (≈ 2.03 µM)	–
isolate (source animal id): 171	> 32	–
isolate (source animal id): 175	> 32	–
isolate (source animal id): 176	–	4 (≈ 8.1 µM)
isolate (source animal id): 177	> 32	–
isolate (source animal id): 181	1 (≈ 2.03 µM)	–
isolate (source animal id): 182	1 (≈ 2.03 µM)	–
isolate (source animal id): 183	> 32	2 (≈ 4.05 µM)
isolate (source animal id): 186	–	2 (≈ 4.05 µM)
isolate (source animal id): 187	1 (≈ 2.03 µM)	–
isolate (source animal id): 190	1 (≈ 2.03 µM)	–
isolate (source animal id): 194	> 32	–
isolate (source animal id): 195	1 (≈ 2.03 µM)	–
isolate (source animal id): 196	–	2 (≈ 4.05 µM)
isolate (source animal id): 197	8 (≈ 16.2 µM)	–
isolate (source animal id): 198	–	1 (≈ 2.03 µM)
isolate (source animal id): 200	–	2 (≈ 4.05 µM)
isolate (source animal id): 206	–	1 (≈ 2.03 µM)
isolate (source animal id): 208	–	2 (≈ 4.05 µM)
isolate (source animal id): 210	–	≤ 0.5
isolate (source animal id): 211	≤ 0.5	–
isolate (source animal id): 212	–	≤ 0.5
isolate (source animal id): 214	16 (≈ 32.4 µM)	–
isolate (source animal id): 215	–	2 (≈ 4.05 µM)
isolate (source animal id): 216	–	2 (≈ 4.05 µM)
isolate (source animal id): 218	–	2 (≈ 4.05 µM)
isolate (source animal id): 219	–	2 (≈ 4.05 µM)
isolate (source animal id): 222	> 32	–
isolate (source animal id): 223	> 32	–
isolate (source animal id): 224	–	2 (≈ 4.05 µM)
isolate (source animal id): 228	≤ 0.5	2 (≈ 4.05 µM)
isolate (source animal id): 230	≤ 0.5	2 (≈ 4.05 µM)
isolate (source animal id): 233	–	1 (≈ 2.03 µM)
isolate (source animal id): 235	≤ 0.5	–
isolate (source animal id): 236	> 32	–
isolate (source animal id): 238	–	≤ 0.5
isolate (source animal id): 239	2 (≈ 4.05 µM)	2 (≈ 4.05 µM)
isolate (source animal id): 241	≤ 0.5	2 (≈ 4.05 µM)
isolate (source animal id): 242	–	2 (≈ 4.05 µM)
isolate (source animal id): 243	–	2 (≈ 4.05 µM)
isolate (source animal id): 244	> 32	–
isolate (source animal id): 245	–	2 (≈ 4.05 µM)
isolate (source animal id): 246	> 32	4 (≈ 8.1 µM)
isolate (source animal id): 247	≤ 0.5	2 (≈ 4.05 µM)
isolate (source animal id): 248	–	1 (≈ 2.03 µM)
isolate (source animal id): 250	> 32	2 (≈ 4.05 µM)
isolate (source animal id): 251	–	2 (≈ 4.05 µM)
isolate (source animal id): 252	> 32	4 (≈ 8.1 µM)
isolate (source animal id): 254	–	2 (≈ 4.05 µM)
isolate (source animal id): 258	–	2 (≈ 4.05 µM)
isolate (source animal id): 259	–	1 (≈ 2.03 µM)
isolate (source animal id): 262	–	1 (≈ 2.03 µM)
isolate (source animal id): 264	–	≤ 0.5
isolate (source animal id): 265	–	1 (≈ 2.03 µM)
isolate (source animal id): 266	–	1 (≈ 2.03 µM)
isolate (source animal id): 267	–	1 (≈ 2.03 µM)
isolate (source animal id): 268	1 (≈ 2.03 µM)	–
isolate (source animal id): 269	–	1 (≈ 2.03 µM)
isolate (source animal id): 271	–	1 (≈ 2.03 µM)
isolate (source animal id): 272	–	1 (≈ 2.03 µM)
isolate (source animal id): 274	–	1 (≈ 2.03 µM)
isolate (source animal id): 276	–	1 (≈ 2.03 µM)
isolate (source animal id): 278	–	1 (≈ 2.03 µM)
isolate (source animal id): 280	–	≤ 0.5
isolate (source animal id): 281	–	2 (≈ 4.05 µM)
isolate (source animal id): 282	> 32	–
isolate (source animal id): 283	–	1 (≈ 2.03 µM)
isolate (source animal id): 285	> 32	–
isolate (source animal id): 288	–	1 (≈ 2.03 µM)
isolate (source animal id): 289	> 32	–
isolate (source animal id): 290	> 32	–
isolate (source animal id): 291	–	1 (≈ 2.03 µM)
isolate (source animal id): 292	–	1 (≈ 2.03 µM)
isolate (source animal id): 296	> 32	≤ 0.5
isolate (source animal id): 298	≤ 0.5	–
isolate (source animal id): 301	32 (≈ 64.8 µM)	–
isolate (source animal id): 306	–	1 (≈ 2.03 µM)
isolate (source animal id): 310	> 32	–
isolate (source animal id): 320	> 32	–
isolate (source animal id): 331	> 32	–
isolate (source animal id): 333	> 32	–
isolate (source animal id): 336	–	1 (≈ 2.03 µM)
isolate (source animal id): 337	–	1 (≈ 2.03 µM)
isolate (source animal id): 341	> 32	1 (≈ 2.03 µM)

CCC[C@@H]1C[C@@H](C(=O)N[C@@H]([C@H]2O[C@H](SC)[C@H](O)[C@@H](O)[C@H]2O)[C@H](C)Cl)N(C)C1 [Clindamycin]
Enterococcus spp.
Conditions	minimum inhibitory concentration [µg/mL]
isolate (source animal id): 2	≤ 0.25
isolate (source animal id): 35	> 16
isolate (source animal id): 42	16 (≈ 37.6 µM)
isolate (source animal id): 44	16 (≈ 37.6 µM)
isolate (source animal id): 79	16 (≈ 37.6 µM)
isolate (source animal id): 88	≤ 0.25
isolate (source animal id): 91	≤ 0.25
isolate (source animal id): 92	2 (≈ 4.71 µM)
isolate (source animal id): 111	≤ 0.25
isolate (source animal id): 122	> 16
isolate (source animal id): 123	8 (≈ 18.8 µM)
isolate (source animal id): 133	≤ 0.25
isolate (source animal id): 158	> 16
isolate (source animal id): 168	≤ 0.25
isolate (source animal id): 169	≤ 0.25
isolate (source animal id): 171	16 (≈ 37.6 µM)
isolate (source animal id): 175	> 16
isolate (source animal id): 177	16 (≈ 37.6 µM)
isolate (source animal id): 181	≤ 0.25
isolate (source animal id): 182	≤ 0.25
isolate (source animal id): 183	16 (≈ 37.6 µM)
isolate (source animal id): 187	≤ 0.25
isolate (source animal id): 190	≤ 0.25
isolate (source animal id): 194	16 (≈ 37.6 µM)
isolate (source animal id): 195	≤ 0.25
isolate (source animal id): 197	0.5 (≈ 1.18 µM)
isolate (source animal id): 211	≤ 0.25
isolate (source animal id): 214	2 (≈ 4.71 µM)
isolate (source animal id): 222	16 (≈ 37.6 µM)
isolate (source animal id): 223	8 (≈ 18.8 µM)
isolate (source animal id): 228	2 (≈ 4.71 µM)
isolate (source animal id): 230	2 (≈ 4.71 µM)
isolate (source animal id): 235	> 16
isolate (source animal id): 236	8 (≈ 18.8 µM)
isolate (source animal id): 239	≤ 0.25
isolate (source animal id): 241	> 16
isolate (source animal id): 244	16 (≈ 37.6 µM)
isolate (source animal id): 246	16 (≈ 37.6 µM)
isolate (source animal id): 247	> 16
isolate (source animal id): 250	16 (≈ 37.6 µM)
isolate (source animal id): 252	> 16
isolate (source animal id): 268	> 16
isolate (source animal id): 282	4 (≈ 9.41 µM)
isolate (source animal id): 285	> 16
isolate (source animal id): 289	8 (≈ 18.8 µM)
isolate (source animal id): 290	16 (≈ 37.6 µM)
isolate (source animal id): 296	16 (≈ 37.6 µM)
isolate (source animal id): 298	≤ 0.25
isolate (source animal id): 301	0.5 (≈ 1.18 µM)
isolate (source animal id): 310	> 16
isolate (source animal id): 320	4 (≈ 9.41 µM)
isolate (source animal id): 331	8 (≈ 18.8 µM)
isolate (source animal id): 333	16 (≈ 37.6 µM)
isolate (source animal id): 341	> 16

Reference: the supplement of paper PMC8612539
